The values that follow come from patent US20260069596A1 (Cardiff Oncology, Inc., priority 2024, published 2026).

“Also recorded” adds a separate entry of the source. Bounds are passed on as bounds.

One data set addresses T1, CYP1A2 (Homo sapiens, UniProt P05177).
T1 construct: was investigated using human liver microsomes; from tissue; host or cells: human liver microsomes
T1 sequence (P05177 1-516): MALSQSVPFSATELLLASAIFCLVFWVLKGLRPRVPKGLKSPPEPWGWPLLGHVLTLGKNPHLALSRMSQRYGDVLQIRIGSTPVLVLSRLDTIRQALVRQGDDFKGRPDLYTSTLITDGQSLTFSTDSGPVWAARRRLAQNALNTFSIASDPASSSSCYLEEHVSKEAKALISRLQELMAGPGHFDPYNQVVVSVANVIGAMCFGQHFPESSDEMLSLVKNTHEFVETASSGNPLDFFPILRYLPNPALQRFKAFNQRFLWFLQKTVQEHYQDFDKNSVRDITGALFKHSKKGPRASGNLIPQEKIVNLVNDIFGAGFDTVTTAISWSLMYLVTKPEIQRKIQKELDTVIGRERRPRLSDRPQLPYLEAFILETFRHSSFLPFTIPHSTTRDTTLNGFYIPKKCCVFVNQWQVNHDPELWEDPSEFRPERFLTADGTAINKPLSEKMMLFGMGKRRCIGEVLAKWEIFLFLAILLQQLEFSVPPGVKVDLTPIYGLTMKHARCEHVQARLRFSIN
The conditions noted are these: human liver microsomes; cited from earlier work.

For data set [1] the following is noted: cited from earlier work.
The subject of data set [2] is RAS^WT colorectal cancer patient derived xenograft (PDX) models. Nature of the data set: Example 2: antitumor activity in RAS^WT colorectal cancer PDX models. The class given is in vivo, mice. As for the experimental part:
Tumor volumes (TV) were measured twice a week, and % tumor volume change (TVC) from baseline was calculated as follows: (TVi/TV0−1)×100. Tumor stasis defined as TVC between 0 and 20%, and tumor regression as TVC less than 0% at last measurement. Results are presented as mean±SEM.

Data set [3] has as its system advanced/metastatic solid tumors. To be noted: single agent; cited from earlier work.

Take `CN1CCN(c2ccc(OC(F)(F)F)c(Nc3ncc4c(n3)-c3c(c(C(N)=O)nn3CCO)CC4)c2)CC1` [Onvansertib, 1-(2-hydroxyethyl)-8-{[5-(4-methylpiperazin-1-yl)-2-(trifluoromethoxy)phenyl]amino}-4,5-dihydro-1H-pyrazolo[4,3-h]quinazoline-3-carboxamide]: the “inhibitory effect against CYP1A2” value at CYP1A2 is reported as “No significant inhibitory effects”. In data set [1] (doses of 6, 12, and 24 mg/m^2/day, oral, 5 consecutive days every 3 weeks), the DLTs result was “No DLTs”. In addition, the “primary dose-limiting toxicities / primary toxicities” value in data set [1] (phase I, patients with advanced/metastatic solid tumors) was “neutropenia and thrombocytopenia; also recorded: thrombocytopenia and neutropenia”. Further, the “recovery time of hematologic toxicities” value in data set [1] (reversible toxicities) was at most 3 weeks. Further, the “models with tumor stasis or regression” value in data set [2] (7 PDXs sensitive to cetuximab) was “five”. In addition, in data set [2] (PDX models sensitive to cetuximab, 71%), the “models with potent antitumor activity” value is recorded as 5/7. Besides, in data set [2] (all 20 models), the “models with tumor regression (TVC less than 0%)” value is given as 11 models; the “models with tumor stasis (TVC between 0 and 20%)” value is listed as 3 models. For the same molecule, the “best observed treatment response” value in data set [3] is given as “stable disease”.
